Entries after “also recorded” stand apart in the source; their conditions may differ.
Legend:
[1] = Liposome leakage assay (carboxyfluorescein release); details: for CF release from liposomes: 10 mM Tris-buffer; for share of the maximal CF release: within 5-10 minutes, 1 μM of peptides
Description: Liposome preparation and leakage assay. The liposomes investigated were either zwitterionic (DOPC/cholesterol 60/40 mol/mol or DOPC without cholesterol) or anionic (DOPE/DOPG 75/25 mol/mol). DOPG (1,2-Dioleoyl-sn-Glycero-3-Phosphoglycerol, monosodium salt), DOPC (1,2-dioleoyl-sn-Glycero-3-phosphocholine), and DOPE (1,2-dioleoyl-sn-Glycero-3-phosphoetanolamine) were all from Avanti Polar Lipids (Alabaster, USA) and of >99% purity, while cholesterol (>99% purity), was from Sigma-Aldrich (St. Louis, USA). Due to the long, symmetric and unsaturated acyl chains of these phospholipids, several methodological advantages are reached. In particular, membrane cohesion is good, which facilitates very stable, unilamellar, and largely defect-free liposomes (observed from cryo-TEM) and well defined supported lipid bilayers (observed by ellipsometry and AFM), allowing detailed values on leakage and adsorption density to be obtained. The lipid mixtures were dissolved in chloroform, after which solvent was removed by evaporation under vacuum overnight. Subsequently, 10 mM Tris buffer, pH 7.4, was added together with 0.1 M carboxyfluorescein (CF) (Sigma, St. Louis, USA). After hydration, the lipid mixture was subjected to eight freeze-thaw cycles consisting of freezing in liquid nitrogen and heating to 60° C. Unilamellar liposomes of about Ø140 nm were generated by multiple extrusions through polycarbonate filters (pore size 100 nm) mounted in a LipoFast miniextruder (Avestin, Ottawa, Canada) at 22° C. Untrapped CF was removed by two subsequent gel filtrations (Sephadex G-50, GE Healthcare, Uppsala, Sweden) at 22° C., with Tris buffer as eluent. CF release from the liposomes was determined by monitoring the emitted fluorescence at 520 nm from a liposome dispersion (10 mM lipid in 10 mM Tris, pH 7.4). An absolute leakage scale was obtained by disrupting the liposomes at the end of each experiment through addition of 0.8 mM Triton X-100 (Sigma-Aldrich, St. Louis, USA). A SPEX-fluorolog 1650 0.22-m double spectrometer (SPEX Industries, Edison, USA) was used for the liposome leakage assay in Tris buffer in the absence and presence of liposomes under conditions described above. Measurements were performed in triplicate at 37° C.
Liposome preparation and leakage assay—The liposomes investigated were anionic (DOPE/DOPG 75125 mol/mol). DOPG (1,2-Dioleoyl-sn-Glycero-3-Phosphoglycerol, monosodium salt) and DOPE (1,2-dioleoyl-sn-Glycero-3-phoshoetanolamine) were both from Avanti Polar Lipids (Alabaster, USA) and of >99% purity. […] CF release from the liposomes was determined by monitoring the emitted fluorescence at 520 nm from a liposome dispersion (10 µM lipid in 10 mM Tris, pH 7.4). […]

RAW 264.7 macrophages = assay: NO production in RAW 264.7 macrophages stimulated with LPS or other microbial products (Griess reaction); format: cell-based, mouse
Protocol: Effects of various microbial products on macrophages in vitro and anti-inflammatory effects by various peptides of HCII and TFPI. 3.5×10^5 cells were seeded in 96-well tissue culture plates (Nunc, 167008) in phenol red-free DMEM (Gibco) supplemented with 10% FBS and antibiotics. Following 6 hours of incubation to permit adherence, cells were stimulated with 10 ng/mL E. coli (0111:B4) LPS (Sigma), lipoteichoic acid, peptioglycan, or zymosan, with and without peptides at the indicated doses (se figure legends and figures). The levels of NO in culture supernatants were determined after 24 hours from stimulation using the Griess reaction. Briefly, nitrite, a stable product of NO degradation, was measured by mixing 50 μl of culture supernatants with the same volume of Griess reagent (Sigma, G4410) and reading absorbance at 550 nm after 15 min. Phenol-red free DMEM with FBS and antibiotics were used as a blank. A standard curve was prepared using 0-80 μM sodium nitrite solutions in ddH20.
LPS effects on macrophages in vitro—[…] cells were seeded in 96-well tissue culture plates (Nunc, 167008) in phenol red-free DMEM (Gibco) supplemented with 10% FBS containing 1% Anti-Anti (Invitrogen). Following 20 hours of incubation to permit adherence, cells were washed and stimulated with 10 ng/ml E. coli (0111:B4) or P. aeruginosa LPS (Sigma), with and without the peptides GGL27, GGL27(S), and DSE25 of various doses. The levels of NO in culture supernatants were determined after 24 hours from stimulation using the Griess reaction (27). Briefly, nitrite, a stable product of NO degradation, was measured by mixing 50 μl of culture supernatants with the same volume of Griess reagent (Sigma, G4410) and reading absorbance at 550 nm after 15 min. Phenol-red free DMEM with FBS and antibiotics were used as a blank. A standard curve was prepared using 0-80 μM sodium nitrite solutions in ddH20.

[2] = system: P. aeruginosa infected mice; assay: Animal infection model, P. aeruginosa; format: in vivo, mouse; details: P. aeruginosa i.p.; GGL27 500 μg s.c. after 1 h; P<0.001
Protocol: Animal infection model—Animals were housed under standard conditions of light and temperature and had free access to standard laboratory chow and water. P. aeruginosa 15159 bacteria were grown to logarithmic phase (OD620˜0.5), harvested, washed in PBS, diluted in the same buffer to 2×10^8 cfu/ml, and kept on ice until injection. Hundred microliter of the bacterial suspension was injected intraperitoneally (i.p.) into female Balb/c mice. Sixty minutes after the bacterial injection, 0.5 mg GGL27 or buffer alone was injected subcutaneously (s.c.) into the mice. In a corresponding E. coli infection model, bacteria were grown to early logarithmic phase (OD620˜0.4), harvested, washed in PBS, diluted in the same buffer to 1×10^8 cfu/ml, and kept on ice until injection. Hundred microliter of the bacterial suspension was injected i.p. into female Balb/c mice. Thirty minutes after the bacterial injection, 0.2 mg of GGL27 peptide or buffer alone was injected i.p. Data from two independent experiments were pooled.

Sequence | CF release from liposomes [1] | share of the maximal CF release [1] [%] | anti-endotoxic effects in vitro (RAW 264.7 macrophages) | LPS-mediated NO release (RAW 264.7 macrophages; LPS from E. coli or P. aeruginosa, peptide at indicated concentrations (FIG. 41C)) | survival [2]
GGLIKTKRKRKKQRVKIAYEEIFVKNM [GGL27, C-terminal peptide of TFPI, plasmin-generated] | caused CF release | ~80 | anti-endotoxic effects | inhibits NO production; also recorded: inhibited LPS-mediated NO-release | prolongs survival; also recorded: prolongation of survival
LIKTKRKRKKQRVKIAY [LIK17] | caused CF release | ~80 |  |  | 
